According to patent US20130210817A1, “METHODS OF CONTROLLING NEONICOTINOID RESISTANT APHIDS” (SYNGENTA CROP PROTECTION LLC, priority 2010, published 2013):

Assays:
[1] = tested on: neonicotinoid insecticide resistant aphid strain; type: in vivo; settings: mixed age aphids on chinese cabbage leaf discs, Potter Tower spray, mortality 72 hours after treatment; resistant strain from peach orchard, Avignon region, 2009
Protocol: (§1) The following bioassay methodology was utilized to generate the data included in the table:
(§2) 5 cm leaf discs were taken from fully expanded chinese cabbage leaves and placed with the underside facing upwards onto water agar in 5 cm Petri dishes. The leaf discs are infested with between 30 and 40 mixed age aphids 24 hours prior to insecticide treatment. The leaf surface is sprayed with the appropriate test solutions in a Burkhard Potter Tower at an approximate water volume of 450 l/ha. Test containers are stored at 21 °C, 60% RH and 16:8 light/dark. Aphids were assessed for mortality 72 hours after treatment.

[2] = tested on: neonicotinoid insecticide susceptible strain 4106A; type: in vivo; settings: mixed age aphids on chinese cabbage leaf discs, Potter Tower spray, mortality 72 hours after treatment; susceptible strain 4106A (Rothamsted Research)
Protocol: as §1, §2

## C/C(=N\C#N)N(C)Cc1ccc(Cl)nc1 [acetamiprid]
[1]
  LC50 with 95% confidence limit (ppm) resistant strain: 49.3 (35.2-72.0) ppm
[2]
  LC50 with 95% confidence limit (ppm) susceptible strain: 0.55 (0.51-0.59) ppm

## CN/C(=N\[N+](=O)[O-])NCc1cnc(Cl)s1 [clothianidin]
[1]
  LC50 with 95% confidence limit (ppm) resistant strain: 904 (478-3616) ppm
[2]
  LC50 with 95% confidence limit (ppm) susceptible strain: 0.33 (0.28-0.38) ppm

## CN/C(=N/CC1CCOC1)N[N+](=O)[O-] (centres unmarked) [dinotefuran]
[1]
  LC50 with 95% confidence limit (ppm) resistant strain: 538 (435-696) ppm
[2]
  LC50 with 95% confidence limit (ppm) susceptible strain: 9.95 (8.21-12.5) ppm

## CCN(Cc1ccc(Cl)nc1)/C(=C/[N+](=O)[O-])NC [nitenpyram]
[1]
  LC50 with 95% confidence limit (ppm) resistant strain: 237 (93.7-3566) ppm
[2]
  LC50 with 95% confidence limit (ppm) susceptible strain: 1.26 (1.03-1.61) ppm

## CC(=O)N1C(=O)N(NCc2cccnc2)Cc2cc(C(F)(C(F)(F)F)C(F)(F)F)ccc21 [pyrifluquinazon, 1-acetyl-1,2,3,4-tetrahydro-3-[(3-pyridylmethyl)amino]-6-[1,2,2,2-tetrafluoro-1-(trifluoromethyl)ethyl]quinazolin-2-one]
[1]
  LC50 with 95% confidence limit (ppm) resistant strain: 0.09 (0.06-0.13) ppm
[2]
  LC50 with 95% confidence limit (ppm) susceptible strain: 0.17 (0.13-0.22) ppm

## N#C/N=C1\SCCN1Cc1ccc(Cl)nc1 [thiacloprid]
[1]
  LC50 with 95% confidence limit (ppm) resistant strain: >1000 ppm
[2]
  LC50 with 95% confidence limit (ppm) susceptible strain: 0.38 (0.34-0.42) ppm

## CN1COCN(Cc2cnc(Cl)s2)/C1=N\[N+](=O)[O-] [thiamethoxam]
[1]
  LC50 with 95% confidence limit (ppm) resistant strain: 148 (128-172) ppm
[2]
  LC50 with 95% confidence limit (ppm) susceptible strain: 0.35 (0.3-0.41) ppm
